Results on 6 compounds are retold here after patent EP0675109A1, “N-SUBSTITUTED INDOLE DERIVATIVE” (TAISHO PHARMACEUTICAL CO. LTD, priority 1992, dated 1994).

One experiment deals with α1-adrenergic receptor. Briefly: α1-Adrenergic receptor binding test ([³H] prazosin displacement, rat brain membrane preparation). The settings on record: 0.6 nM [³H] prazosin, 25 °C for 30 minutes, read-out: IC₅₀. How it is done:
The α1-adrenergic receptor binding reaction was performed in accordance with the method of Greengrass and Bremner [Eur. J. Pharmacol., 55, 323 (1979)].
A rat was decapitated, and the brain was taken out and homogenized with 30 volumes of 50 Mm Tris hydrochloride (Ph 7.4). The homogenate was centrifuged at 1,000 x g for 5 minutes and the supernatant was further centrifuged at 48,000 x g for 20 minutes. The precipitate thus obtained was suspended in 50 mM Tris hydrochloride (pH 7.4) and recentrifuged at 48,000 x g for 20 minutes. The obtained precipitate was suspended in 50 mM Tris hydrochloride (pH 7.4) in such a manner as to give a concentration of 1.0 mg/ml protein. Thus an α1-adrenergic receptor preparation was obtained.
To 1.0 ml portions of this receptor preparation were added 0.6 nM [³H] prazosin and specimens at various concentrations, and the mixture was allowed to react at 25 °C for 30 minutes.
After the completion of the reaction, each reaction mixture was subjected to a rapid filtration through a glass filter (Whatman GF/B) and the filter was washed with 3 ml portions of 50 mM tris hydrochloride (pH 7.4) thrice. The radioactivity on the filter was measured with a liquid scintillation counter.
The difference between the radioactivity in the absence of any specimen and the radioactivity obtained in the presence of 10 µM of prazosin was referred to as the specific binding of the control. The ratio of the radioactivity obtained at the time of adding each specimen to the control radioactivity was determined and plotted against the specimen concentration. Then the fifty percent inhibitory concentration (IC₅₀) of each specimen was calculated by the curve fitting method with the use of a computer.

Another experiment concerns dog (beagle). Briefly: Depressor activity test (telemetry of blood pressure and cardiac rate in conscious dogs after oral administration). It is filed as in vivo. How it is done: The depressor activity test was performed in accordance with the method described in Journal of Physiology, 448, 307 - 320 (1992).
Under pentobarbital anesthesia, a catheter for detecting and transmitting the blood pressure was embedded in a branch of the femoral artery of a dog (weighing 10 kg, beagle, each group having 4 animals). When the animal restored from the postoperative aggression, a powder of the compound 1 encapsulated in a cellulose capsule (3 mg/kg) was orally administered to the animal, which had been fasted, without anesthesia or restriction.
Via the catheter embedded in the body of the beagle, the cardiac rate was measured from the blood pressure and the blood pressure pulse wave in accordance with the telemetry method. The blood pressure lowering effect attained the maximum level 30 minutes after the administration and the blood pressure was lowered by about 12 mmHg. This depressor activity persisted even 24 hours after the administration.

Experiment [1] concerns smooth muscle of the beagle prostate gland. The experiment is described as follows: Urination disorder-relieving activity test (phenylephrine-induced contraction of isolated prostate smooth muscle, Magnus' method). It is filed as cell-based, dog. Conditions: specimen 10⁻⁸ to 10⁻⁶ M for 15 minutes, against cumulative phenylephrine, calculated from two dose/reaction curves, read-out: IC₅₀. As to the method:
The urination disorder-relieving activity test was performed in accordance with the method described in FEDERATION PROCEEDINGS, 45 (11), (1986). Under pentobarbital anesthesia, the prostate gland of a male dog (weighing 7 to 10 kg, beagle, each group having 3 animals) was taken out. Then a preparation of the smooth muscle of the beagle prostate gland thus taken out was prepared in a conventional manner and the isometric tensile strength was measured by Magnus' method. After incubating for 60 to 90 minutes, phenylephrine (10⁻⁷ to 10⁻⁴ M) was accumulatively administered to give a control dose/reaction curve. After washing away the phenylephrine, the preparation was treated with a specimen (10⁻⁸ to 10⁻⁶ M) for 15 minutes. In the presence of the specimen, phenylephrine (10⁻⁷ to 10⁻³ M) was accumulatively administered again and a dose/reaction curve was obtained in the same manner. Based on these two dose/reaction curves, the IC₅₀ of each specimen was calculated.

The mark [2] stands for this setting: 3 mg/kg orally, time after the administration.

In the case of `CCCC(=O)Cn1cc(CCN2CCN(c3ccccc3OC)CC2)c2ccccc21` [compound 14], the IC50 at α1-adrenergic receptor was found to be 0.801 nM.
As to `CCC(=O)Cn1cc(CCN2CCN(c3ccccc3OC)CC2)c2ccccc21` [compound 1, 3-[2-(4-(2-methoxyphenyl)piperadinyl)ethyl]-1-(2-oxobutyl)indole], the IC50 at α1-adrenergic receptor came to 7.75 nM. Also, the cardiac rate result in the experiment with dog (beagle) (3 mg/kg orally) was “somewhat lowered”. For the same compound, the “blood pressure was lowered (maximum level)” value in the experiment on dog (beagle) (3 mg/kg orally (powder in cellulose capsule), fasted, without anesthesia, 30 minutes after the administration) is reported as “about 12 mmHg”. Further, in the experiment with dog (beagle) (setting [2]), the “persistence of depressor activity” value is not below 24 h and the “time at which the blood pressure lowering effect attained the maximum level” value is 30 min. The potency estimated from few doses in experiment [1] was 1.4 nM.
Regarding `COc1ccccc1N1CCN(CCCNc2cc(=O)n(C)c(=O)n2C)CC1` [urapidil, reference compound], the IC50 at α1-adrenergic receptor turned out to be 741 nM. In addition, in experiment [1], the potency estimated from few doses was 53.7 nM.
For the compound `CCC(=O)Cn1cc(CCN2CCN(c3ccc(F)cc3)CC2)c2ccccc21` [compound 8], the IC50 at α1-adrenergic receptor is 5.13 nM.
For `COc1ccccc1N1CCN(CCc2cn(CC(=O)C(C)C)c3ccccc23)CC1` [compound 15], the IC50 on α1-adrenergic receptor stood at 0.679 nM.
The same measure, in the same setting: the same measure for `CCC(=O)Cn1cc(CCN2CCN(c3cccc(C)c3C)CC2)c2ccccc21` [compound 4]: 3.93 nM.
